Patent publication US4880817A, “O-functionalized derivatives of substituted isoquinolin-3-ols having cardiotonic and/or phosphodiesterase fraction III inhibiting properties and/or renal vasodilating properties” (Ortho Pharmaceutical Corporation, priority 1987, dated 1989)
Like-named read-outs stand apart in the source and are kept apart here.

Experiments:
platelet aggregation = settings: reported in U.S. Pat. No. 3,870,721; cited from earlier work
adult mongrel dogs [1] = experiment: Renal vasodilating activity in anesthetized dogs; assay type: in vivo, mongrel dog; settings: Canis lupus familiaris
Experimental: Goldberg et al., J. Pharmacol. Exp. Ther., 163, 188 (1968), performed an investigation of the structural requirements for dopamine-like renal vasodilation of phenethylamines and apomorphine. The following procedure is a variation of the assay described in that report.
Adult mongrel dogs were anesthetized and surgically prepared for electromagnetic measurement of renal artery blood flow. A carotid artery was cannulated for measuring arterial blood pressure and drugs were administered intravenously or intraarterially (via the renal artery). Heart rate was monitored with a cardiotachometer. Renal vascular resistance was calculated as the ratio of mean arterial blood pressure to renal artery blood flow. Dopamine was infused intravenously at 3 μg/kg/min for ten minutes (at an infusion rate of about 1 ml/min) to determine responsiveness of each dog to renal dopamine receptor stimulation. Cumulative dose-response data were obtained by infusing a compound of this invention at progressively increasing (usually three-fold) infusion rates, each dose being infused for five minutes. The maximum percent change from pre-drug control in renal artery blood flow (or in renal vascular resistance) was determined for each infusion dose.
RBF, RVR, MABP, and HR values are percent changes in renal blood flow, renal vascular resistance, mean arterial blood pressure, and heart rate, respectively, relative to control values.

[2] = target: T1, Phosphodiesterase Fraction III (Canis lupus familiaris, UniProt A0A8I3NYE0); experiment: Inhibition of phosphodiesterase fraction III activity; assay type: biochemical, canine
T1 construct: The fraction III enzyme was isolated as an isomzyme from the crude canine heart homogenate; from tissue; host or cells: canine heart (crude homogenate, ion exchange chromatography)
T1 sequence (A0A8I3NYE0 1-1135): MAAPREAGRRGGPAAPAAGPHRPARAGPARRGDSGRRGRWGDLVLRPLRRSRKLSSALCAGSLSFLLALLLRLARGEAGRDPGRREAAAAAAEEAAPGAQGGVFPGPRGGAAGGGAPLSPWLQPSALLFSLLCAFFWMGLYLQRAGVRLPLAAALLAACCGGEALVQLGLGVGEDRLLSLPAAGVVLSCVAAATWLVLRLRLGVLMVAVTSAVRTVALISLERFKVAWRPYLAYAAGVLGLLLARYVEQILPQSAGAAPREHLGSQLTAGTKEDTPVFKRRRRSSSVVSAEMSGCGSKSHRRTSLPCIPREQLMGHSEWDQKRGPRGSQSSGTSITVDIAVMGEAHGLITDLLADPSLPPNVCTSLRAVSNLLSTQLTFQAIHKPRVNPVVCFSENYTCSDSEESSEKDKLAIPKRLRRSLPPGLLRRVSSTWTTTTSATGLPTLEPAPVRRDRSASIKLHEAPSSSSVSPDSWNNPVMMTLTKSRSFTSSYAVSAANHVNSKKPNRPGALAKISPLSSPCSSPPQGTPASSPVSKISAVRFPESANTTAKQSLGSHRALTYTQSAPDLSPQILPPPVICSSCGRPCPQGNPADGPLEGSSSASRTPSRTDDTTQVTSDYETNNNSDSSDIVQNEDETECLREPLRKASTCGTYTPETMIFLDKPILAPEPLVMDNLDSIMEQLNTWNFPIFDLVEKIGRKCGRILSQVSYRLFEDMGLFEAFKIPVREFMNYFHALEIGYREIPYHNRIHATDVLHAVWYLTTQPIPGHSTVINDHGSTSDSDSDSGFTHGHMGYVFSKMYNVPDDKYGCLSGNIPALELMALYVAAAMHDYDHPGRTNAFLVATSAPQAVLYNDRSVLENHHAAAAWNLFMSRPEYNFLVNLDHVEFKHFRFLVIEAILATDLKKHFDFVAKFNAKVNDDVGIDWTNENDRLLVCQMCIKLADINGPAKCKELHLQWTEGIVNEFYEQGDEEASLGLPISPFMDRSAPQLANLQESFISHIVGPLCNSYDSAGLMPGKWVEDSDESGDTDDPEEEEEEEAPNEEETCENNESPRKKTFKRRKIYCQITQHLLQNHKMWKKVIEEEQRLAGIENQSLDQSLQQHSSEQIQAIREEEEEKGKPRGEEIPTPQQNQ
Experimental: Thompson et al. described a cyclic nucleotide phosphodiesterase assay in Advances in Cyclic Nucleotide Research, Brooker et al., eds., 10, 69-92 (1979). The following procedure is based on that published assay and measures the ability of compounds to inhibit cyclic nucleotide phosphodiesterase which is an enzyme that converts either cyclic AMP or cyclic GMP to the noncyclized AMP or GMP, respectively.
Compounds were tested at various concentrations in the presence of cyclic AMP (0.10-1.0 μM containing 0.2 microCuries ^3 H-cyclic AMP), cyclic nucleotide phosphodiesterase, and 0.05M Tris-Cl buffer (pH 7.4, containing 5 mM magnesium chloride). After a specified time, the reaction was stopped by heating to 100° C. for 1 minute. After cooling, 0.10 ml of a solution containing snake venom (1 mg/ml) was added, and the reaction was allowed to proceed for 30 min. Termination of this reaction was accomplished by the addition of 1.0 ml of 33 percent DOWEX AGl×8 resin slurry (Dow Chemical Co., Midland, MI) to separate the product from the unconverted substrate. An aliquot was removed from the supernatant and analyzed by liquid scintillation spectrometry.
The fraction III enzyme was isolated as an isomzyme from the crude canine heart homogenate by ion exchange chromatography. The enzyme activity was designated fraction III since it is the third and last phosphodiesterase activity to be eluted from the chromatographic column. The fraction III enzyme has a relatively high affinity and specificity for the cyclic AMP.
Data are presented as the IC50 which is the concentration (in micromoles) of a compound that was required to inhibit 50 percent of the cyclic nucleotide phosphodiesterase activity.

adult mongrel dogs [3] = experiment: Acute in vivo cardiotonic activity in anesthetized dogs; design: species or system mongrel dog; settings: Canis lupus familiaris, dose 1.87 mpk, iv, relative to controls
Experimental: The acute in vivo cardiotonic activity of compounds prepared according to the present invention was determined according to a modification of the procedure described by Alousi et al., Circ.
In particular, adult mongrel dogs were anesthetized with sodium pentobarbital and were artificially respired. Arterial pressure was monitored via a femoral artery, and the pulse pressure was used to trigger a cardiotachometer for heart rate. Left ventricular pressure was determined with a Millar catheter, and dP/dT (the change in ventricular pressure with time) was derived. Cardiac output was determined by measuring ascending aortic blood flow with an electromagnetic flow probe, and myocardial contractile force was measured with a Walton Brodie strain gauge sutured to the right ventricle. Lead II EKG was also recorded.
A standard dose (10 μg/kg/min) of dopamine was administered to assess myocardial responsiveness.
Compounds of the invention were administered by intravenous infusion and the effects on cardiovascular parameters were determined.

[4] = dose 6.2 mpk, relative to controls, read-out: HR: percent change in heart rate
[5] = dose 6.2 mpk, relative to controls, read-out: MABP: percent change in mean arterial blood pressure
[6] = dose 6.2 mpk, relative to controls, read-out: RBF: percent change in renal blood flow
[7] = dose 6.2 mpk, relative to controls, read-out: RVR: percent change in renal vascular resistance
[8] = cyclic AMP 0.10-1.0 μM, pH 7.4, enzyme from canine heart homogenate, read-out: IC50
[9] = read-out: HR: percent change in heart rate, dose 6.2 mpk, relative to controls
[10] = read-out: MABP: percent change in mean arterial blood pressure, dose 6.2 mpk, relative to controls
[11] = read-out: RBF: percent change in renal blood flow, dose 6.2 mpk, relative to controls
[12] = read-out: RVR: percent change in renal vascular resistance, dose 6.2 mpk, relative to controls
[13] = read-out: CF: percent change in cardiac force
[14] = read-out: HR: percent change in heart rate
[15] = read-out: MABP: percent change in mean arterial blood pressure
[16] = read-out: dP/dT: maximum percent change in left ventricular pressure with time
[17] = read-out: HR: percent change in heart rate, dose 1.2 mpk, relative to controls
[18] = read-out: MABP: percent change in mean arterial blood pressure, dose 1.2 mpk, relative to controls
[19] = read-out: RBF: percent change in renal blood flow, dose 1.2 mpk, relative to controls
[20] = read-out: RVR: percent change in renal vascular resistance, dose 1.2 mpk, relative to controls

## CC(=O)NC1C(=O)NC(=O)c2ccccc21 (centres unmarked) [4-acetamido-1,2,3,4-tetrahydro 1,3-isoquinolinedione]
Platelet aggregation
  inhibition of platelet aggregation: inhibit platelet aggregation

## CCOc1cc2c(C)nc(OC(C)=O)c([N+](=O)[O-])c2cc1OC [Cmpd 3]
Adult mongrel dogs [1]; [4]
  change in vivo at 6.2 mg/kg: 2%
Adult mongrel dogs [1]; [5]
  change in vivo at 6.2 mg/kg: -6%
Adult mongrel dogs [1]; [6]
  change in vivo at 6.2 mg/kg: 61%
Adult mongrel dogs [1]; [7]
  change in vivo at 6.2 mg/kg: -41%
[2]; [8]
  IC50: 6 µM

## CCOc1cc2c(C)nc(OC(=O)C(C)(C)C)c([N+](=O)[O-])c2cc1OC [Cmpd 9]
Adult mongrel dogs [1]; [4]
  change in vivo at 6.2 mg/kg: 0%
Adult mongrel dogs [1]; [5]
  change in vivo at 6.2 mg/kg: -26%
Adult mongrel dogs [1]; [6]
  change in vivo at 6.2 mg/kg: 43%
Adult mongrel dogs [1]; [7]
  change in vivo at 6.2 mg/kg: -48%
[2]; [8]
  IC50: 100 µM

## CCOc1cc2c(C)nc(OC(=O)N(C)C)c([N+](=O)[O-])c2cc1OC [Cmpd 10]
Adult mongrel dogs [1]; [9]
  change in vivo at 6.2 mg/kg: 10%
Adult mongrel dogs [1]; [10]
  change in vivo at 6.2 mg/kg: -12%
Adult mongrel dogs [1]; [11]
  change in vivo at 6.2 mg/kg: 46%
Adult mongrel dogs [1]; [12]
  change in vivo at 6.2 mg/kg: -39%
Adult mongrel dogs [3]; [13]
  change in vivo at 1.87 mg/kg: 70%
Adult mongrel dogs [3]; [14]
  change in vivo at 1.87 mg/kg: -6%
Adult mongrel dogs [3]; [15]
  change in vivo at 1.87 mg/kg: 18%
Adult mongrel dogs [3]; [16]
  change in vivo at 1.87 mg/kg: 91%
[2]
  IC50: 45 µM

## CCOc1cc2c(C)nc(OC(=O)c3ccc(OC)cc3)c([N+](=O)[O-])c2cc1OC [Cmpd 11]
Adult mongrel dogs [3]; [13]
  change in vivo at 1.87 mg/kg: 126%
Adult mongrel dogs [3]; [14]
  change in vivo at 1.87 mg/kg: 25%
Adult mongrel dogs [3]; [15]
  change in vivo at 1.87 mg/kg: -17%
Adult mongrel dogs [3]; [16]
  change in vivo at 1.87 mg/kg: 47%
[2]; [8]
  IC50: 30 µM

## COC(=O)c1c(OC(C)C)nc(C)c2cc(OC)c(OC)cc12 [Cmpd 18]
[2]; [8]
  IC50: 225 µM

## CCOc1nc(C)c2cc(OC)c(OC)cc2c1C(=O)OC [Cmpd 19, 4-Carbomethoxy-3-ethoxy-6,7-dimethoxy-1-methylisoquinoline]
[2]; [8]
  IC50: 42 µM

## CCOc1cc2c([N+](=O)[O-])c(OC(C)=O)nc(C)c2cc1OC [Cmpd 21]
Adult mongrel dogs [1]; [4]
  change in vivo at 6.2 mg/kg: 38%
Adult mongrel dogs [1]; [5]
  change in vivo at 6.2 mg/kg: 3%
Adult mongrel dogs [1]; [6]
  change in vivo at 6.2 mg/kg: 40%
Adult mongrel dogs [1]; [7]
  change in vivo at 6.2 mg/kg: -25%
[2]; [8]
  IC50: 14 µM

## CCCCOc1cc2c(C)nc(OC(C)=O)c([N+](=O)[O-])c2cc1OC [Cmpd 22]
Adult mongrel dogs [1]; [4]
  change in vivo at 6.2 mg/kg: 25%
Adult mongrel dogs [1]; [5]
  change in vivo at 6.2 mg/kg: -12%
Adult mongrel dogs [1]; [6]
  change in vivo at 6.2 mg/kg: 11%
Adult mongrel dogs [1]; [7]
  change in vivo at 6.2 mg/kg: -22%
Adult mongrel dogs [3]; [13]
  change in vivo at 1.87 mg/kg: 43%
Adult mongrel dogs [3]; [14]
  change in vivo at 1.87 mg/kg: 2%
Adult mongrel dogs [3]; [15]
  change in vivo at 1.87 mg/kg: -23%
Adult mongrel dogs [3]; [16]
  change in vivo at 1.87 mg/kg: 68%
[2]; [8]
  IC50: 3.5 µM

## CCOc1cc2c(C)nc(OS(=O)(=O)N(C)C)c([N+](=O)[O-])c2cc1OC [Cmpd 26]
Adult mongrel dogs [1]; [4]
  change in vivo at 6.2 mg/kg: 0%
Adult mongrel dogs [1]; [5]
  change in vivo at 6.2 mg/kg: 0%
Adult mongrel dogs [1]; [6]
  change in vivo at 6.2 mg/kg: 7%
Adult mongrel dogs [1]; [7]
  change in vivo at 6.2 mg/kg: -8%
[2]; [8]
  IC50: 20.5 µM

## COc1cc2c(C)nc(OC(=O)N(c3ccccc3)c3ccccc3)c([N+](=O)[O-])c2cc1OC [Cmpd 34]
Adult mongrel dogs [1]; [9]
  change in vivo at 6.2 mg/kg: 21%
Adult mongrel dogs [1]; [10]
  change in vivo at 6.2 mg/kg: -10%
Adult mongrel dogs [1]; [11]
  change in vivo at 6.2 mg/kg: 37%
Adult mongrel dogs [1]; [12]
  change in vivo at 6.2 mg/kg: -35%
[2]
  IC50: 35 µM

## COc1cc2c(C)nc(OS(=O)(=O)N(C)C)c(N)c2cc1OC [Cmpd 43]
[2]; [8]
  IC50: 34 µM

## CCOc1cc2c(C)nc(OC(=O)N(CC)CC)c(N)c2cc1OC [Cmpd 44]
[2]; [8]
  IC50: 180 µM

## COc1cc2c(C)nc(OS(=O)(=O)N(C)C)c(N)c2cc1OC [Cmpd 63]
[2]; [8]
  IC50: 185 µM

## COc1cc2c(C)nc(OC(=O)N3CCNCC3)c([N+](=O)[O-])c2cc1OC [Cmpd 70, 6,7-Dimethoxy-1-methyl-4-nitro-3-(1-piperazinyl)carbonyloxyisoquinoline]
Adult mongrel dogs [1]; [17]
  change in vivo at 1.2 mg/kg: 20%
Adult mongrel dogs [1]; [18]
  change in vivo at 1.2 mg/kg: -1%
Adult mongrel dogs [1]; [19]
  change in vivo at 1.2 mg/kg: 26%
Adult mongrel dogs [1]; [20]
  change in vivo at 1.2 mg/kg: -19%
[2]
  IC50: 78 µM

## CCOc1cc2c(C)nc(OC(=O)N3CCNCC3)c([N+](=O)[O-])c2cc1OC [Cmpd 71]
[2]
  IC50: 22 µM

## C=CCNC(=O)Nc1c(OC(=O)N(CC)CC)nc(C)c2cc(OCC)c(OC)cc12 [Cmpd 74]
Adult mongrel dogs [1]; [17]
  change in vivo at 1.2 mg/kg: -16%
Adult mongrel dogs [1]; [18]
  change in vivo at 1.2 mg/kg: -2%
Adult mongrel dogs [1]; [19]
  change in vivo at 1.2 mg/kg: 15%
Adult mongrel dogs [1]; [20]
  change in vivo at 1.2 mg/kg: -14%
[2]
  IC50: 115 µM
